Patent publication US20120010237A1, “COMPOUNDS HAVING ANTIPARASITIC OR ANTI-INFECTIOUS ACTIVITY” (The Government of the United States of America dba The …, priority 2008, published 2012)
Values joined by “and” are separate entries in the source; they are usually repeats but may differ in a detail not shown here. Equal entries are not always repeated. Where two headings read alike, the source gives them in different places.

Key:
[1] = tested on: P. falciparum (D6, Dd2, Tm90.C2B); assay: In vitro activity and pharmaco-resistance pattern against a panel of P. falciparum parasites; format: cell-based, Plasmodium falciparum; details: for antiplasmodial activity in vitro (in words): structure-activity comparison with endochin; for cross-resistance / sensitivity pattern across strains: atovaquone-resistant Tm90.C2B compared with D6 and Dd2, in words; for reduction of potency relative to ELQ-121: in vitro, relative to the 5,7-difluoro parent ELQ-121
Experimental: (§1) Plasmodium falciparum strains D6 and Dd2 were obtained from the MR4 (ATCC, Manassas, Va., USA). D6 is sensitive to chloroquine but mildly resistant to mefloquine while Dd2 is resistant to multiple quinoline and antifolate antimalarial agents. Tm90.C2B is resistant to atovaquone, chloroquine, mefloquine, and quinine.
(§2) Three different laboratory strains of P. falciparum were cultured in human erythrocytes by standard methods under a low oxygen atmosphere (5% O2, 5% CO2, 90% N2) in an environmental chamber as described in Trager, W., and J. B. Jensen. 1976. Human malaria parasites in continuous culture. Science 193:673-5. The culture medium was RPMI-1640, supplemented with 25 mM HEPES buffer, 25 mg/L gentamicin sulfate, 45 mg/L hypoxanthine, 10 mM glucose, 2 mM glutamine, and 0.5% Albumax II (complete medium). The parasites were maintained in fresh human erythrocytes suspended at a 2% hematocrit in complete medium at 37° C. Stock cultures were sub-passaged every 3 to 4 days by transfer of infected red cells to a flask containing complete medium and uninfected erythrocytes.
(§3) In vitro antimalarial activity of the compounds was assessed by the SYBR Green I fluorescence-based method (the “MSF assay”) described previously by Smilkstein, M., N. Sriwilaijaroen, J. X. Kelly, P. Wilairat, and M. Riscoe. 2004. Simple and inexpensive fluorescence-based technique for high-throughput antimalarial drug screening. Antimicrob Agents Chemother 48:1803-6 with minor modifications (Winter, R. W., J. X. Kelly, M. J. Smilkstein, R. Dodean, G. C. Bagby, R. K. Rathbun, J. I. Levin, D. Hinrichs, and M. K. Riscoe. 2006. Evaluation and lead optimization of anti-malarial acridones. Exp Parasitol 114:47-56). Experiments were set up in triplicate in 96 well plates (Costar, Corning) with two-fold dilutions of each drug across the plate in a total volume of 100 microliters and at a final red blood cell concentration of 2% (v/v). Stock solutions of each drug were prepared by dissolving in ethanol or dimethylsulfoxide (as appropriate) at 10 mM. […] Automated pipeting and dilution was carried out with the aid of a programmable Precision 2000 robotic station (BioTek, Winooski, Vt.). An initial parasitemia of 0.2% was attained by addition of normal uninfected red cells to a stock culture of asynchronous parasite infected red cells (PRBC). The plates were incubated for 72 hrs at 37° C. in an atmosphere of 5% CO2, 5% O2, and 90% N2. After this period the SYBR Green I dye-detergent mixture (100 μl) was added and the plates were incubated at room temperature for an hour in the dark and then placed in a 96-well fluorescence plate reader (Spectramax Gemini-EM, […]) for analysis with excitation and emission wavelength bands centered at 497 and 520 nm, respectively.
(§4) The compounds were screened for antiplasmodial activity in vitro against chloroquine (CQ) sensitive (D6), multidrug resistant (Dd2), and chloroquine/quinine/atovaquone (ATV)-resistant (Tm90.C2B) strains of P. falciparum.

[2] = tested on: Plasmodium falciparum strain D6; assay: SYBR Green I fluorescence-based MSF assay, in vitro antimalarial activity, strain D6; format: cell-based; details: chloroquine sensitive strain D6, 72 hrs incubation
Experimental: as §1, §2, §3, §4

[3] = tested on: Plasmodium falciparum strain Tm90.C2B; format: cell-based
Experimental: as §1, §2
In vitro antimalarial activity of the compounds was assessed by the SYBR Green I fluorescence-based method (the “MSF assay”) described previously by Smilkstein, M., N. Sriwilaijaroen, J. X. Kelly, P. Wilairat, and M. Riscoe. 2004. Simple and inexpensive fluorescence-based technique for high-throughput antimalarial drug screening. Antimicrob Agents Chemother 48:1803-6 with minor modifications (Winter, R. W., J. X. Kelly, M. J. Smilkstein, R. Dodean, G. C. Bagby, R. K. Rathbun, J. I. Levin, D. Hinrichs, and M. K. Riscoe. 2006. Evaluation and lead optimization of anti-malarial acridones. Exp Parasitol 114:47-56). […] After this period the SYBR Green I dye-detergent mixture (100 μl) was added and the plates were incubated at room temperature for an hour in the dark and then placed in a 96-well fluorescence plate reader (Spectramax Gemini-EM, […]) for analysis with excitation and emission wavelength bands centered at 497 and 520 nm, respectively. […]

[4] = tested on: P. cathemerium; details: P. cathemerium/canary; cited from earlier work
[5] = tested on: P. gallinaceum; details: P. gallinaceum in the chick; cited from earlier work
[6] = tested on: P. lophurae; details: P. lophurae in the turkey; cited from earlier work
[7] = tested on: Haemoproteus; details: male gametocytes undergoing exflagellation, finches infected with Haemoproteus; cited from earlier work
[8] = tested on: malaria infections; details: mice to non-human primates (Rhesus monkeys); cited from earlier work
[9] = tested on: Toxoplasma gondii strain 2F; assay: Anti-T. gondii assay with beta-galactosidase expressing 2F strain in HFF cells; format: cell-based; details: compared with the correlation observed for Plasmodium falciparum
Experimental: Determination of anti-T. gondii IC50 and TD50 values—use of the 2F strain. This method, which employs tachyzoites of Toxoplasma gondii strain 2F that constitutively expresses cytoplasmic Beta-galactosidase, has been described recently by Jones-Brando et al. (Jones-Brando, L., D'angelo, J., Posner, G H, and Yolken, R., 2006, In vitro inhibition of Toxoplasma gondii by four new derivatives of artemisinin, Antimicrobial Agents and Chemotherapy 50: 4206-8). […] Briefly, each drug was dissolved in ethanol or DMSO, as appropriate, at a concentration of 10 mM and diluted with complete Dulbecco's modified Eagle's medium (DMEM) to 1,000 μM. […] After this period, Triton X-100 is added to inactivate the parasite and the color reactions in the wells were read in a microplate reader. For anti-T. gondii IC50 determinations, the plates are read at 570-650 nm. The amount of absorbance (570-650 nm) in wells containing drug, parasites, and CPRG reagent is compared to that in control wells containing T. gondii, HFF cells and CPRG. The amount of absorbance in these wells is directly proportional to the amount of beta-galactosidase activity and thus correlative to the number of viable tachyzoites in each well. Thus, a decrease in the amount of absorbance indicates an inhibition of parasite growth. […]

[10] = tested on: P. yoelii; format: in vivo
Experimental: The activity of the ester, ELQ-125, against the blood stages was assessed using a modified Thompson procedure (Arba Ager, 1984). Rodent malaria models, vol. 68/1. Springer-Verlag, Berlin. Mice (female, CFI) were infected intravenously with 1-5 million P. yoelii parasitized erythrocytes from a donor animal. Drug administration was initiated once the parasitemia had risen to between 3 to 5% as determined microscopically by examination of Giemsa-stained blood smears. The test compound, ELQ-125, was taken into NeoBee® M-5 (Stephan Company, Northfield, Ill., USA) and used without dilution. The drug was administered by gavage once daily for 3 days. On the 4th day blood films were prepared and the extent of parasitemia was determined microscopically. ED50 and ED90 values (mg/kg/day) were derived from the dose required to reduce the parasite burden by 50% and 90%, respectively, relative to drug-free controls. The procedures involved, together with all matters relating to the care and housing of the animals used in this study, were approved by the Portland VA Medical Center Institutional Animal Care and Use Committee (approval #0807).
Prodrugs containing a water-soluble pro-moiety that could be metabolically released after drug administration were designed and synthesized. […] In each case, ELQ-125, a clear and colorless syrup, was administered orally with NeoBee M-5 (vol.=100 μl).

[11] = tested on: Plasmodium falciparum strain Dd2; assay: SYBR Green I fluorescence-based MSF assay, in vitro antimalarial activity, strain Dd2; format: cell-based; details: multidrug resistant strain Dd2, 72 hrs incubation
Experimental: as §1
Three different laboratory strains of P. falciparum were cultured in human erythrocytes by standard methods under a low oxygen atmosphere (5% O2, 5% CO2, 90% N2) in an environmental chamber as described in Trager, W., and J. B. Jensen. 1976. Human malaria parasites in continuous culture. Science 193:673-5. […]
In vitro antimalarial activity of the compounds was assessed by the SYBR Green I fluorescence-based method (the “MSF assay”) described previously by Smilkstein, M., N. Sriwilaijaroen, J. X. Kelly, P. Wilairat, and M. Riscoe. […] Simple and inexpensive fluorescence-based technique for high-throughput antimalarial drug screening. […] After this period the SYBR Green I dye-detergent mixture (100 μl) was added and the plates were incubated at room temperature for an hour in the dark and then placed in a 96-well fluorescence plate reader (Spectramax Gemini-EM, […]) for analysis with excitation and emission wavelength bands centered at 497 and 520 nm, respectively. […]

[12] = chloroquine/quinine/atovaquone-resistant Tm90.C2B clinical isolate, 72 hrs incubation

## CCCCCCCc1c(C)[nH]c2cc(F)ccc2c1=O [ELQ-120]
[1]
  antiplasmodial activity in vitro (in words): only a modest reduction in in vitro potency

## CCCCCCCc1c(C)[nH]c2cc(Cl)ccc2c1=O [ELQ-109]
[2]
  IC50: 5.8 nM
[1]
  antiplasmodial activity in vitro (in words): only a modest reduction in in vitro potency

## CCCCCCCc1c(C)[nH]c2cc(OC)ccc2c1=O [ELQ-100, endochin]
[2]
  IC50: 3 to 4 nM and 3.8 nM
[3]; [12]
  IC50: 11.4 nM
[1]
  cross-resistance / sensitivity pattern across strains: a modest level of ATV cross-resistance
[4]
  efficacy in bird model: efficacy in treatment and prevention of malaria
[5]
  efficacy in treatment and prophylaxis: demonstrated efficacy in treatment and prophylaxis
[6]
  efficacy in treatment and prophylaxis: demonstrated efficacy in treatment and prophylaxis
[7]
  gametocidal action: exerted gametocidal action
[8]
  cure of malaria infections in mammalian species: failed to cure malaria infections

## CCCCCCCc1c(C)[nH]c2ccc(Cl)cc2c1=O [ELQ-130]
[2]
  IC50: 22.2 nM
[1]
  cross-resistance / sensitivity pattern across strains: equal sensitivity is observed against the atovaquone-resistant Tm90.C2B clinical isolate

## CCCCCCCc1c(C)n(C)c2cc(F)cc(F)c2c1=O [ELQ-134]
[1]
  reduction of potency relative to ELQ-121: about 300 fold
[9]
  growth inhibitory activity against Toxoplasma gondii (in words): enhanced growth inhibitory activity

## CCCCCCCc1c(C)[nH]c2ccccc2c1=O [ELQ-127]
[1]
  cross-resistance / sensitivity pattern across strains: equally active against all three parasite strains
[1]; relative to endochin
  in vitro activity weakened relative to endochin: roughly 5 fold

## CCCCCCCc1c(C)[nH]c2cc(Cl)cc(Cl)c2c1=O [ELQ-124]
[1]
  antiplasmodial activity in vitro (in words): weak in vitro activity

## CCCCCCCc1c(C)nc2cc(F)cc(F)c2c1OC(=O)OCCOCCOCCOCCOC [ELQ-125]
[10]; 25 mg/kg/day oral, 3 days, assessed on the day following the last dose
  parasitemia suppressed relative to controls: > 99%
[10]; 25 mg/kg/day oral, 3 days, until euthanized 10 days later
  parasite status during follow-up: remained parasite-free
[10]; 50 mg/kg/day oral in NeoBee M-5, once daily for 3 days, mice
  clearance of parasites from the bloodstream: completely cleared parasites from the bloodstream
[10]; 100 mg/kg/day oral in NeoBee M-5, once daily for 3 days, mice
  clearance of parasites from the bloodstream: completely cleared parasites from the bloodstream
[10]; oral in 100 μl NeoBee M5, once daily for 3 days, mice
  ED90: 22 mg/kg/day
[10]; prodrug ester compared with ELQ-121
  in vivo efficacy of the prodrug (in words): greatly enhanced in vivo efficacy

## CCCCCCCc1c(C)nc2cc(F)cc(F)c2c1Cl [ELQ-119]
[1]
  reduction of potency relative to ELQ-121: > 1,000 fold

## COc1ccc2c(=O)c(CCCCCCCCCCC(F)(F)F)c(C)[nH]c2c1 [ELQ-103]
[2]
  IC50 vs. D6: low nanomolar range
[11]
  IC50 vs. Dd2: low nanomolar range
[3]; [12]
  IC50 vs. Tm90.C2B: low nanomolar range

## CCCCCCCc1c(C)[nH]c2cc(F)cc(F)c2c1=O [ELQ-121, 2-Methyl-3-(n-heptyl)-5.7-difluorquinolone]
[2]
  IC50: ~0.05 nM
[11]
  IC50: ~0.05 nM
[3]; times higher than IC50 against D6 and Dd2
  IC50 against Tm90.C2B relative to D6 and Dd2: about 300 times

## CCCCCCCc1c(C)[nH]c2c(F)cc(F)cc2c1=O [6,8-difluoro positional isomer]
[1]
  reduction of potency relative to ELQ-121: ≈ 2,000 fold

## CCCCCCCc1c(C)[nH]c2cc(O)ccc2c1=O [ELQ-117]
[1]
  antiplasmodial activity in vitro (in words): greatly diminishes antiplasmodial activity

## CCCCCCCc1c(O)[nH]c2cc(OC)ccc2c1=O [ELQ-106]
[2]
  IC50: > 2500 nM
